From PubChem BioAssay (NCI)
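In this assay, cells in 96-well plates receive the compound at five concentrations for 48 hours. Endpoints are linearly interpolated between the surrounding concentrations. GI50: concentration for 50% inhibition of growth. Definition used: TGI = concentration required for complete inhibition of growth.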

Columns and labels:
Assay in all cases: NCI anticancer screen, dose series, 48 h
786-0 renal = test system: 786-0 renal
A549 NSCLC = test system: A549 NSCLC
CAKI-1 renal = test system: CAKI-1 renal
CCRF-CEM leukemia = test system: CCRF-CEM leukemia
COLO 205 colon = test system: COLO 205 colon
DU-145 prostate = test system: DU-145 prostate
EKVX NSCLC = test system: EKVX NSCLC
HCC-2998 colon = test system: HCC-2998 colon
HCT-15 colon = test system: HCT-15 colon
HL-60(TB) leukemia = test system: HL-60(TB) leukemia
HOP-62 NSCLC = test system: HOP-62 NSCLC
HOP-92 NSCLC = test system: HOP-92 NSCLC
HT29 colon = test system: HT29 colon
IGROV1 ovarian = test system: IGROV1 ovarian
K-562 leukemia = test system: K-562 leukemia
KM12 colon = test system: KM12 colon
LOX IMVI melanoma = test system: LOX IMVI melanoma
M14 melanoma = test system: M14 melanoma
MALME-3M melanoma = test system: MALME-3M melanoma
MCF7 breast = test system: MCF7 breast
MDA-MB-231 breast = test system: MDA-MB-231 breast
MDA-MB-435 = test system: MDA-MB-435
MOLT-4 leukemia = test system: MOLT-4 leukemia
NCI-H23 lung = test system: NCI-H23 lung
OVCAR-4 ovarian = test system: OVCAR-4 ovarian
OVCAR-8 ovarian = test system: OVCAR-8 ovarian
PC-3 prostate = test system: PC-3 prostate
RPMI-8226 leukemia = test system: RPMI-8226 leukemia
RXF 393 renal = test system: RXF 393 renal
SF-268 CNS = test system: SF-268 CNS
SF-295 CNS = test system: SF-295 CNS
SK-MEL-28 melanoma = test system: SK-MEL-28 melanoma
SK-MEL-5 melanoma = test system: SK-MEL-5 melanoma
SK-OV-3 ovarian = test system: SK-OV-3 ovarian
SN12C renal = test system: SN12C renal
SNB-75 CNS = test system: SNB-75 CNS
SR leukemia = test system: SR leukemia
SW-620 colon = test system: SW-620 colon
T-47D breast = test system: T-47D breast
TK-10 renal = test system: TK-10 renal
UACC-257 melanoma = test system: UACC-257 melanoma
UACC-62 melanoma = test system: UACC-62 melanoma
A498 renal = test system: A498 renal
ACHN renal = test system: ACHN renal
HCT-116 colon = test system: HCT-116 colon
HS 578T breast = test system: HS 578T breast
OVCAR-3 ovarian = test system: OVCAR-3 ovarian
SF-539 CNS = test system: SF-539 CNS
UO-31 renal = test system: UO-31 renal
NCI-H226 lung = test system: NCI-H226 lung
NCI-H460 lung = test system: NCI-H460 lung
NCI-H522 lung = test system: NCI-H522 lung
NCI/ADR-RES ovarian = test system: NCI/ADR-RES ovarian
OVCAR-5 ovarian = test system: OVCAR-5 ovarian
SK-MEL-2 melanoma = test system: SK-MEL-2 melanoma
SNB-19 CNS = test system: SNB-19 CNS
U251 CNS = test system: U251 CNS

## CCC(=O)OC1=C(c2ccccc2)Sc2ccc(Cl)cc2-n2cccc21
786-0 renal
  TGI: > 10 µM
A549 NSCLC
  TGI: > 10 µM
CAKI-1 renal
  TGI: > 10 µM
CCRF-CEM leukemia
  TGI: > 10 µM
COLO 205 colon
  TGI: > 10 µM
DU-145 prostate
  TGI: > 10 µM
EKVX NSCLC
  TGI: > 10 µM
HCC-2998 colon
  TGI: > 10 µM
HCT-15 colon
  TGI: > 10 µM
HL-60(TB) leukemia
  TGI: > 10 µM
HOP-62 NSCLC
  TGI: > 10 µM
HOP-92 NSCLC
  TGI: > 10 µM
HT29 colon
  TGI: > 10 µM
IGROV1 ovarian
  TGI: > 10 µM
K-562 leukemia
  TGI: > 10 µM
KM12 colon
  TGI: > 10 µM
LOX IMVI melanoma
  TGI: > 10 µM
M14 melanoma
  TGI: > 10 µM
MALME-3M melanoma
  TGI: > 10 µM
MCF7 breast
  TGI: > 10 µM
MDA-MB-231 breast
  TGI: > 10 µM
MDA-MB-435
  TGI: 5.28 µM
MOLT-4 leukemia
  TGI: > 10 µM
NCI-H23 lung
  TGI: > 10 µM
OVCAR-4 ovarian
  TGI: > 10 µM
OVCAR-8 ovarian
  TGI: > 10 µM
PC-3 prostate
  TGI: > 10 µM
RPMI-8226 leukemia
  TGI: > 10 µM
RXF 393 renal
  TGI: > 10 µM
SF-268 CNS
  TGI: > 10 µM
SF-295 CNS
  TGI: > 10 µM
SK-MEL-28 melanoma
  TGI: > 10 µM
SK-MEL-5 melanoma
  TGI: > 10 µM
SK-OV-3 ovarian
  TGI: > 10 µM
SN12C renal
  TGI: > 10 µM
SNB-75 CNS
  TGI: > 10 µM
SR leukemia
  TGI: > 10 µM
SW-620 colon
  TGI: > 10 µM
T-47D breast
  TGI: > 10 µM
TK-10 renal
  TGI: > 10 µM
UACC-257 melanoma
  TGI: > 10 µM
UACC-62 melanoma
  TGI: > 10 µM

## N#C/C(=C\c1ccc(Br)cc1)n1nnc2c(F)cccc21
786-0 renal
  GI50: 1.29 µM
  TGI: 2.91 µM
A498 renal
  GI50: 1.36 µM
  TGI: 4.65 µM
A549 NSCLC
  GI50: 1.93 µM
  TGI: > 100 µM
ACHN renal
  GI50: 1.04 µM
  TGI: 2.38 µM
CCRF-CEM leukemia
  GI50: 0.657 µM
  TGI: 3.13 µM
EKVX NSCLC
  GI50: 1.75 µM
  TGI: > 100 µM
HCC-2998 colon
  GI50: 1.71 µM
  TGI: 3.18 µM
HCT-116 colon
  GI50: 0.503 µM
  TGI: 1.94 µM
HL-60(TB) leukemia
  GI50: 2.45 µM
  TGI: > 100 µM
HOP-92 NSCLC
  GI50: 0.156 µM
  TGI: 4.48 µM
HS 578T breast
  GI50: 3.39 µM
  TGI: > 100 µM
IGROV1 ovarian
  GI50: 0.715 µM
  TGI: 3.02 µM
K-562 leukemia
  GI50: 0.386 µM
  TGI: > 100 µM
LOX IMVI melanoma
  GI50: 1.41 µM
  TGI: 2.77 µM
MALME-3M melanoma
  GI50: 1.44 µM
  TGI: 3.93 µM
MCF7 breast
  GI50: 0.768 µM
  TGI: > 100 µM
MDA-MB-231 breast
  GI50: 1.28 µM
  TGI: 4.17 µM
MOLT-4 leukemia
  GI50: 2.48 µM
  TGI: > 100 µM
OVCAR-3 ovarian
  GI50: 0.275 µM
  TGI: 0.845 µM
OVCAR-8 ovarian
  GI50: 2.87 µM
  TGI: > 100 µM
PC-3 prostate
  GI50: 0.472 µM
  TGI: 2.05 µM
SF-268 CNS
  GI50: 3.11 µM
  TGI: > 100 µM
SF-539 CNS
  GI50: 2.21 µM
  TGI: 5.45 µM
SNB-75 CNS
  GI50: 0.043 µM
  TGI: 5.04 µM
SR leukemia
  GI50: 0.441 µM
  TGI: > 100 µM
T-47D breast
  GI50: 0.353 µM
  TGI: 4.78 µM
TK-10 renal
  GI50: 2.36 µM
  TGI: 6.5 µM
UACC-62 melanoma
  GI50: 0.697 µM
  TGI: 2.17 µM
UO-31 renal
  GI50: 1.04 µM
  TGI: 2.24 µM

## CC1(C)CC[C@]2(C(=O)Nc3ccccn3)CC[C@]3(C)C(=CC[C@@H]4[C@@]5(C)C/C(=C/c6ccncc6)C(=O)C(C)(C)[C@@H]5CC[C@]43C)[C@@H]2C1
786-0 renal
  GI50: 2.88 µM
  TGI: > 100 µM
A498 renal
  GI50: 2.05 µM
  TGI: 5.18 µM
A549 NSCLC
  GI50: 2 µM
  TGI: > 100 µM
ACHN renal
  GI50: 2.08 µM
  TGI: 5.98 µM
CAKI-1 renal
  GI50: 2.69 µM
  TGI: > 100 µM
CCRF-CEM leukemia
  GI50: 2.3 µM
  TGI: > 100 µM
EKVX NSCLC
  GI50: 3.8 µM
  TGI: > 100 µM
HCC-2998 colon
  GI50: 1.81 µM
  TGI: 4.82 µM
HCT-15 colon
  GI50: 1.85 µM
  TGI: 6.63 µM
HL-60(TB) leukemia
  GI50: 1.24 µM
  TGI: 5.68 µM
HOP-62 NSCLC
  GI50: 4.41 µM
  TGI: > 100 µM
HOP-92 NSCLC
  GI50: 1.24 µM
  TGI: 7 µM
HS 578T breast
  GI50: 2.96 µM
  TGI: > 100 µM
HT29 colon
  GI50: 2.17 µM
  TGI: > 100 µM
IGROV1 ovarian
  GI50: 3.12 µM
  TGI: 67.3 µM
K-562 leukemia
  GI50: 1.78 µM
  TGI: > 100 µM
M14 melanoma
  GI50: 2.85 µM
  TGI: > 100 µM
MALME-3M melanoma
  GI50: 2.25 µM
  TGI: 6.15 µM
MCF7 breast
  GI50: 0.938 µM
  TGI: 15.3 µM
MDA-MB-231 breast
  GI50: 2.92 µM
  TGI: 19.5 µM
MDA-MB-435
  GI50: 2.58 µM
  TGI: > 100 µM
MOLT-4 leukemia
  GI50: 2.27 µM
  TGI: > 100 µM
NCI-H226 lung
  GI50: 1.97 µM
  TGI: 6.04 µM
NCI-H23 lung
  GI50: 3.18 µM
  TGI: > 100 µM
NCI-H460 lung
  GI50: 1.51 µM
  TGI: 3.9 µM
NCI-H522 lung
  GI50: 2.09 µM
  TGI: 27.7 µM
NCI/ADR-RES ovarian
  GI50: 4.48 µM
  TGI: > 100 µM
OVCAR-4 ovarian
  GI50: 2.9 µM
  TGI: > 100 µM
OVCAR-5 ovarian
  GI50: 4.14 µM
  TGI: > 100 µM
OVCAR-8 ovarian
  GI50: 3.76 µM
  TGI: > 100 µM
PC-3 prostate
  GI50: 0.624 µM
  TGI: > 100 µM
RXF 393 renal
  GI50: 1.67 µM
  TGI: 3.37 µM
SF-268 CNS
  GI50: 9.45 µM
  TGI: > 100 µM
SF-295 CNS
  GI50: 2.37 µM
  TGI: 29.3 µM
SK-MEL-2 melanoma
  GI50: 3.63 µM
  TGI: > 100 µM
SK-MEL-28 melanoma
  GI50: 2.28 µM
  TGI: 6.59 µM
SK-MEL-5 melanoma
  GI50: 1.59 µM
  TGI: 3.1 µM
SK-OV-3 ovarian
  GI50: > 100 µM
  TGI: > 100 µM
SN12C renal
  GI50: 2.57 µM
  TGI: > 100 µM
SNB-19 CNS
  GI50: 5.82 µM
  TGI: > 100 µM
SR leukemia
  GI50: 0.702 µM
  TGI: > 100 µM
T-47D breast
  GI50: 1.68 µM
  TGI: > 100 µM
TK-10 renal
  GI50: 5.75 µM
  TGI: > 100 µM
U251 CNS
  GI50: 1.82 µM
  TGI: 4.32 µM
UACC-257 melanoma
  GI50: 2.2 µM
  TGI: > 100 µM
UACC-62 melanoma
  GI50: 1.85 µM
  TGI: 8.89 µM
UO-31 renal
  GI50: 1.38 µM
  TGI: 2.74 µM
